Test results: PubChem BioAssay AID330 (DTP/NCI, 2004)
Where “and” joins values, the source holds several entries; their conditions need not be identical. Equal entries are not always repeated. Toxic doses and inconclusive results are not listed.

Test system: P388 leukemia ip, CD2F1 mice, survival T/C
Assay: NCI In Vivo Anticancer Drug Screen. Data for tumor model P388 Leukemia (intraperitoneal) in CD2F1 (CDF1) mice
Details: endpoint: median survival time, higher = longer survival
Outline: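 Mice carrying the transplanted tumor received test compound or vehicle. Survival was recorded in each group, and the value is the treated-group measurement divided by that of the vehicle-treated control group.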

[1] = dose: 12.5 mg/kg/injection, schedule: Q01DX005 (ip), vehicle: Klucel (hydroxypropylcellulose) (HPC)
[2] = dose: 25.0 mg/kg/injection, schedule: Q01DX005 (ip), vehicle: Klucel (hydroxypropylcellulose) (HPC)
[3] = dose: 60.0 mg/kg/injection, schedule: Q01DX005 (ip), vehicle: saline
[4] = dose: 120.0 mg/kg/injection, schedule: Q01DX005 (ip), vehicle: saline
[5] = dose: 6.25 mg/kg/injection, schedule: Q01DX005 (ip), vehicle: Klucel (hydroxypropylcellulose) (HPC)
[6] = dose: 50.0 mg/kg/injection, schedule: Q01DX005 (ip), vehicle: saline with Tween-80

For `O=C1CCN(C(=O)C2=CC(=O)OC2)C1`, the T/C [1] was 100 % of control, the T/C [2] was 93 % of control and the T/C (dose: 50.0 mg/kg/injection, schedule: Q01DX005 (ip), vehicle: Klucel (hydroxypropylcellulose) (HPC)) was 100 % of control.

`CCCCCCC(=O)CC(SCC(NC(C)=O)C(=O)O)c1ccccc1Cl` (stereo not given) was tested, and the T/C [3] was 101 % of control and the T/C [4] was 93 % of control.

With `O=C1COc2ccccc2OCCOCCOc2ccccc2OC1` the T/C (dose: 60.0 mg/kg/injection, schedule: Q01DX005 (ip), vehicle: saline with Tween-80) was 97 % of control, the T/C (dose: 120.0 mg/kg/injection, schedule: Q01DX005 (ip), vehicle: saline with Tween-80) was 98 % of control and the T/C (dose: 240.0 mg/kg/injection, schedule: Q01DX005 (ip), vehicle: saline with Tween-80) was 96 % of control.

With `Cc1ccc(S(=O)(=O)N/N=C(\C(=O)O)c2ccccc2)cc1` the T/C (dose: 12.5 mg/kg/injection, schedule: Q01DX009 (ip), vehicle: Klucel (hydroxypropylcellulose) (HPC)) was 102 % of control, the T/C (dose: 25.0 mg/kg/injection, schedule: Q01DX009 (ip), vehicle: Klucel (hydroxypropylcellulose) (HPC)) was 97 % of control and the T/C (dose: 50.0 mg/kg/injection, schedule: Q01DX009 (ip), vehicle: Klucel (hydroxypropylcellulose) (HPC)) was 96 % of control. For the same compound, the T/C (dose: 100.0 mg/kg/injection, schedule: Q01DX009 (ip), vehicle: Klucel (hydroxypropylcellulose) (HPC)) was 94 % of control and the T/C (dose: 200.0 mg/kg/injection, schedule: Q01DX009 (ip), vehicle: Klucel (hydroxypropylcellulose) (HPC)) was 93 % of control.

In the case of `CN(C=O)/C=C1\CC(OO)NC1=O` (stereo not given), the T/C [3] is reported as 100 % of control, the T/C [4] is reported as 101 % of control and the T/C (dose: 240.0 mg/kg/injection, schedule: Q01DX005 (ip), vehicle: saline) is reported as 103 % of control.

In the case of `COc1cc(NC(C)CCCN)c2ncc(Br)cc2c1` (stereo not given), the T/C (dose: 6.25 mg/kg/injection, schedule: Q01DX005 (ip), vehicle: saline) is reported as 95 % of control and the T/C (dose: 12.5 mg/kg/injection, schedule: Q01DX005 (ip), vehicle: saline) is reported as 91 % of control.

`CC1=CC(=O)c2c(O)cccc2C1=O` was tested, and the T/C (dose: 2.0 mg/kg/injection, schedule: Q01DX009 (ip), vehicle: Klucel (hydroxypropylcellulose) (HPC)) was 108 % of control, the T/C (dose: 2.0 mg/kg/injection, schedule: Q01DX009 (ip), vehicle: saline with Tween-80) was 110 % of control and the T/C (dose: 4.0 mg/kg/injection, schedule: Q01DX009 (ip), vehicle: Klucel (hydroxypropylcellulose) (HPC)) was 113 % of control and 116 % of control. The T/C (dose: 4.0 mg/kg/injection, schedule: Q01DX009 (ip), vehicle: saline with Tween-80) was 114 % of control and the T/C (dose: 8.0 mg/kg/injection, schedule: Q01DX009 (ip), vehicle: Klucel (hydroxypropylcellulose) (HPC)) was 122 % of control.

With `Cc1c[nH]c2nc(C)n(-c3ccc(F)cc3)c(=N)c12` the T/C [5] was 100 % of control, the T/C [1] was 102 % of control and the T/C [2] was 100 % of control.

With `C#CC(C)C(C(C)=O)C(C)=O.[C-]#[O+].[C-]#[O+].[C-]#[O+].[C-]#[O+].[C-]#[O+].[C-]#[O+].[Co].[Co]` (stereo not given) the T/C (dose: 3.12 mg/kg/injection, schedule: Q01DX005 (ip), vehicle: Klucel (hydroxypropylcellulose) (HPC)) was 104 % of control, the T/C [5] was 94 % of control and the T/C [1] was 111 % of control.

With `CCCCCCCCC1OCN2CC(CC)CCC12` (stereo not given) the T/C (dose: 50.0 mg/kg/injection, schedule: Q01DX005 (ip), vehicle: saline) was 107 % of control, the T/C (dose: 100.0 mg/kg/injection, schedule: Q01DX005 (ip), vehicle: saline) was 108 % of control and the T/C (dose: 200.0 mg/kg/injection, schedule: Q01DX005 (ip), vehicle: saline) was 108 % of control.

In the case of `C/C(=N\Nc1cc(C)c2ccccc2n1)c1ccccn1`, the T/C (dose: 12.5 mg/kg/injection, schedule: Q01DX005 (ip), vehicle: saline with Tween-80) is reported as 103 % of control, the T/C (dose: 25.0 mg/kg/injection, schedule: Q01DX005 (ip), vehicle: saline with Tween-80) is reported as 103 % of control and the T/C [6] is reported as 102 % of control and 115 % of control.

With `CCOC(=O)Nc1c(C)noc1NC(C)=O` the T/C (dose: 100.0 mg/kg/injection, schedule: Q01DX001 (ip), vehicle: saline with Tween-80) was 100 % of control, the T/C (dose: 200.0 mg/kg/injection, schedule: Q01DX001 (ip), vehicle: saline with Tween-80) was 100 % of control and the T/C (dose: 400.0 mg/kg/injection, schedule: Q01DX001 (ip), vehicle: saline with Tween-80) was 95 % of control.

`CCCCCN(CCCCC)CC(O)c1ccc(Cl)c2ccccc12` (stereo not given) was tested, and the T/C [6] was 103 % of control, the T/C (dose: 100.0 mg/kg/injection, schedule: Q01DX005 (ip), vehicle: saline with Tween-80) was 106 % of control and the T/C (dose: 200.0 mg/kg/injection, schedule: Q01DX005 (ip), vehicle: saline with Tween-80) was 103 % of control.

For `OCC(O)C(O)C(O)C(O)c1nn[nH]n1` (stereo not given), the T/C (dose: 100.0 mg/kg/injection, schedule: Q01DX001 (ip), vehicle: saline) was 95 % of control, the T/C (dose: 200.0 mg/kg/injection, schedule: Q01DX001 (ip), vehicle: saline) was 101 % of control and the T/C (dose: 400.0 mg/kg/injection, schedule: Q01DX001 (ip), vehicle: saline) was 92 % of control.

`COc1cccc2c1C(=O)c1c(O)c3c(c(O)c1C2=O)CC(O)(C(C)=O)CC3OC1CC(N)C(O)C(C)O1` (stereo not given) was tested, and the T/C (dose: 0.63 mg/kg/injection, schedule: Q01DX009 (ip), vehicle: water) was 150 % of control and 163 % of control, the T/C (dose: 1.25 mg/kg/injection, schedule: Q01DX009 (ip), vehicle: water) was 158 % of control [middle of 7 runs] and the T/C (dose: 1.5 mg/kg/injection, schedule: Q01DX009 (ip), vehicle: water) was 103 % of control. For the same compound, the T/C (dose: 2.5 mg/kg/injection, schedule: Q01DX009 (ip), vehicle: water) was 160 % of control [middle of 16 runs], the T/C (dose: 2.9 mg/kg/injection, schedule: Q01DX009 (ip), vehicle: saline) was 102 % of control and the T/C (dose: 3.0 mg/kg/injection, schedule: Q01DX009 (ip), vehicle: water) was 110 % of control. The T/C (dose: 3.13 mg/kg/injection, schedule: Q01DX009 (ip), vehicle: water) was 155 % of control, the T/C (dose: 5.0 mg/kg/injection, schedule: Q01DX009 (ip), vehicle: water) was 167 % of control [middle of 17 runs] and the T/C (dose: 6.0 mg/kg/injection, schedule: Q01DX009 (ip), vehicle: water) was 110 % of control. For the same compound, the T/C (dose: 6.25 mg/kg/injection, schedule: Q01DX009 (ip), vehicle: water) was 171 % of control, the T/C (dose: 8.0 mg/kg/injection, schedule: Q04DX003 (ip), vehicle: water) was 114 % of control and the T/C (dose: 10.0 mg/kg/injection, schedule: Q01DX009 (ip), vehicle: water) was 178 % of control [middle of 14 runs]. The T/C (dose: 11.0 mg/kg/injection, schedule: Q04DX003 (ip), vehicle: water) was 103 % of control and 109 % of control, the T/C (dose: 12.0 mg/kg/injection, schedule: Q01DX009 (ip), vehicle: water) was 116 % of control and the T/C (dose: 12.5 mg/kg/injection, schedule: Q01DX009 (ip), vehicle: water) was 174 % of control. The T/C (dose: 15.0 mg/kg/injection, schedule: Q04DX003 (ip), vehicle: water) was 121 % of control, the T/C (dose: 16.0 mg/kg/injection, schedule: Q04DX003 (ip), vehicle: water) was 110 % of control and 122 % of control and the T/C (dose: 20.0 mg/kg/injection, schedule: Q01DX009 (ip), vehicle: other) was 155 % of control. For the same compound, the T/C (dose: 21.9 mg/kg/injection, schedule: Q04DX003 (ip), vehicle: water) was 97 % of control and 118 % of control, the T/C (dose: 23.4 mg/kg/injection, schedule: Q01DX009 (ip), vehicle: saline) was 188 % of control and the T/C (dose: 24.0 mg/kg/injection, schedule: Q01DX009 (ip), vehicle: water) was 108 % of control. The T/C (dose: 25.0 mg/kg/injection, schedule: Q01DX009 (ip), vehicle: water) was 197 % of control, the T/C (dose: 40.0 mg/kg/injection, schedule: Q01DX009 (ip), vehicle: water) was 104 % of control and the T/C (dose: 43.8 mg/kg/injection, schedule: Q04DX003 (ip), vehicle: water) was 106 % of control. For the same compound, the T/C (dose: 64.0 mg/kg/injection, schedule: Q04DX003 (ip), vehicle: water) was 110 % of control, the T/C (dose: 87.5 mg/kg/injection, schedule: Q04DX003 (ip), vehicle: water) was 157 % of control and the T/C (dose: 88.0 mg/kg/injection, schedule: Q04DX003 (ip), vehicle: water) was 182 % of control. The T/C (dose: 120.0 mg/kg/injection, schedule: Q04DX003 (ip), vehicle: water) was 160 % of control, the T/C (dose: 128.0 mg/kg/injection, schedule: Q04DX003 (ip), vehicle: water) was 168 % of control and 172 % of control and the T/C (dose: 175.0 mg/kg/injection, schedule: Q04DX003 (ip), vehicle: water) was 182 % of control. For the same compound, the T/C (dose: 240.0 mg/kg/injection, schedule: Q04DX003 (ip), vehicle: water) was 101 % of control, the T/C (dose: 256.0 mg/kg/injection, schedule: Q04DX003 (ip), vehicle: water) was 177 % of control and the T/C (dose: 350.0 mg/kg/injection, schedule: Q04DX003 (ip), vehicle: water) was 97 % of control.

For `Cc1ccc2oc3c(ccc(=O)n3C)c(=O)c2c1`, the T/C (dose: 100.0 mg/kg/injection, schedule: Q04DX002 (ip), vehicle: saline with Tween-80) was 101 % of control, the T/C (dose: 200.0 mg/kg/injection, schedule: Q04DX002 (ip), vehicle: saline with Tween-80) was 100 % of control and the T/C (dose: 400.0 mg/kg/injection, schedule: Q04DX002 (ip), vehicle: saline with Tween-80) was 98 % of control.
